Source: publication PMC6041393, “A Mechanistic Model for Predicting Cell Surface Presentation of Competing Peptides by MHC Class I Molecules” (Frontiers in Immunology, 2018)
Where two headings read alike, the source gives them in different places.

Legend:
E10 Fab = E10 Fab surface staining of peptide-pulsed RMA-S cells (flow cytometry); type: binding; settings: flow cytometry surface staining of RMA-S cells pulsed with peptides
H-2Db [1] = biological target: T1, H-2Db (Mus musculus, UniProt P01899); assay: Brefeldin A (BFA) decay assay of pMHC complexes at the cell surface; type: cell-based; design: endogenous in cells; host or cells: RMA-S (TAP2-deficient mouse T cell line); settings: for t1/2 (peptide half-life of pMHC complex): BFA decay assay, RMA-S cells kept overnight at 26°C, pulsed with 20 μM peptide 1 h at 26°C, BFA added, decay at 37°C, B22 anti-H-2Db staining, flow cytometry, exponential fit; for Off-rates: converted from BFA decay half-life as log(2)/half-life (s)
T1 sequence (P01899 25-362): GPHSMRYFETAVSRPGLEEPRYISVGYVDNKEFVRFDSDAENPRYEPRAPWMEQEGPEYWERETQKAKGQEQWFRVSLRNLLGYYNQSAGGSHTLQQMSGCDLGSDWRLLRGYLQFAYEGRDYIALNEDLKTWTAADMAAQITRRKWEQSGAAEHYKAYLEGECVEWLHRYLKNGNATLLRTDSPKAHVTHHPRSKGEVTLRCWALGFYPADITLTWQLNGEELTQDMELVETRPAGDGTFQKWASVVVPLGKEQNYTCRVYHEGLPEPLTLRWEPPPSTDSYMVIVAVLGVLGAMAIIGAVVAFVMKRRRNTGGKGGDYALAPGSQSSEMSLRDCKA
T1 sequence (P01887 21-119 partner): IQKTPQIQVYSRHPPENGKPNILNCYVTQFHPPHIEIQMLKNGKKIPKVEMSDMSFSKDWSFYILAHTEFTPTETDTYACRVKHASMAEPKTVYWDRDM
Description: Dissociation of pMHC complexes at the cell surface was assessed by BFA decay assay as described previously ([17]). RMA-S cells were incubated overnight at 26°C to maximize MHC-I surface expression. After being washed, 5 × 10^5 cells per well of a 96-U-bottom plate were pulsed, at different time intervals, with peptides (final concentration of 20 μM) for 1 h at 26°C. After washing with medium, de novo transport of MHC-I to the cell surface was blocked by the addition of BFA, and peptide-loaded RMA-S cells were incubated at 37°C to allow decay of unstable molecules. Cells were washed in FACS buffer and stained with B22 primary monoclonal Abs (conformation sensitive anti-H-2Db MAb) and goat anti-mouse IgG-PE secondary Abs (Abcam, Cambridge, UK) to detect peptide-loaded MHC-I molecules. Samples were analyzed by flow cytometry on a Fortessa X20 flow cytometer (BD, Oxford, UK), and data were analyzed with the Diva software. MFI values were background deducted by subtracting the MFI value obtained in the DMSO control at the last time point. Half-lives and off-rate constants were then determined by fitting the curves using an exponential trend line in the Excel software (Microsoft, USA).
We experimentally measured the stability of pMHC complexes by following their decay from the cell surface over time (“BFA decay assay” in Figure 2A), and used these measurements to calculate the corresponding unbinding rates of the peptides from MHC (Table 1; Figure S3 in Supplementary Material). Finally, to incorporate the effect of IFNγ into the model, we specified a new parameter (γ) that quantifies the increased supply of MHC and tapasin following IFNγ treatment.

NIT-1 insulinoma cells = settings: cited from earlier work; for enhancement of presentation by IFNγ: NIT-1 cells
Description: IFNγ is well known to stimulate the immune system, increasing expression of MHC-I heavy chain, β2-microglobulin, subunits of the immunoproteasome (MECL1, LMP2, and LMP7), TAP, tapasin, the ER aminopeptidase associated with antigen processing (ERAAP) ([41]) and the tapasin-related protein (TAPBPR); it is produced as part of the immune response against viruses. ...

B44:02 = test system: B44:02; design: method as in PMID 26375851; settings: B lymphoblastoid cell lines; cited from earlier work
H-2Db [2] = biological target: T1, H-2Db; assay: pMHC competition assay in co-transfected B6 fibroblasts; surface pMHC quantified with Qifikit beads, cytoplasmic peptide with mCherry beads; type: cell-based; settings: for surface expression of ASN variant–H2Db: IFNγ-treated fibroblasts, E10 Fab staining; for change of surface expression of peptide–H2Db complexes with IFNγ: fibroblasts treated with IFNγ for 48 h versus untreated; for number of pMHC complexes presented on the cell surface: untreated fibroblasts, 1C3 Mab, Qifikit calibration beads
Description: Fibroblasts were seeded at 2 × 10^5 cells per 6 cm diameter Petri dish. When IFNγ treatment was applied, 1 µg of mouse IFNγ (Peprotech, Rocky Hill, USA) was added per Petri dish 4 h after seeding. Cells were transfected the following day with TransIT-LT1 (Mirus, Madison, USA) following the manufacturer’s recommendations using 2.5 µg of each Venus-Ub-peptide and mCherry-Ub-peptide constructs. 1 day after transfection cells were stained for 45 min on ice with primary reagents, 1C3 hybrid Mab neat supernatant, E10 purified Fab, B22, or Y3 purified Mabs to detect surface pMHC complexes. After washing, cells were incubated for 45 min with AF647-conjugated goat anti-human IgG (used after Fab primary) or goat anti-mouse (after mouse antibodies including 1C3) (Invitrogen/Molecular Probes, Eugene, USA). Flow cytometry was performed using a Fortessa X20 cytometer (BD) and the data were analyzed using FACS Diva software (BD).
mCherry flow cytometry calibration beads (Clontech/Takara, USA) were used, as recommended by the manufacturer, to calibrate the amount of mCherry molecules, equivalent to the number of peptide molecules expressed in the transfected cells. Beads were run through the flow cytometer using the same setup as for acquiring cells.
The number of […]-H2Db complexes presented on the cell surface was estimated using Qifikit beads (Dako, Glostrup, Denmark). Beads were treated as recommended by the manufacturer but stained with AF647-conjugated goat anti-mouse IgG (Invitrogen) at the same dilution as used to detect the 1C3 Mab on transfected cells. A calibration curve was drawn by plotting the MFI of the 5 peaks (x-axis) versus the lot-specific numbers of antibody molecules per bead (y-axis). The curve was then used to calculate the number of […]-H2Db complexes presented on the cell surface expressed in antibody-binding capacity units (number of primary mouse monoclonal antibodies per cell).
To establish how variation in the intracellular abundance of competing peptides influences cell surface presentation, we developed an assay in which intracellular peptide supply and pMHC cell surface abundance could be measured simultaneously (Figure 1A), assay adapted from Ref. ([35]). Furthermore, this method measures the abundance of peptides actually presented at the surface of living cells and not, as for quantitative high-throughput methods, the abundance of peptides remaining bound to MHC after biochemical purification of pMHC I complexes from cell lysates. Two fluorescent fusion proteins, Venus-ubiquitin-[…] (faster off-rate, see Table 1) and mCherry-ubiquitin-[…] (slower off-rate) are co-expressed in fibroblasts. Once expressed in the cytoplasm, the fusion proteins are cleaved by endogenous cytoplasmic ubiquitin hydrolases, releasing the peptides at an equimolecular ratio to their respective fluorescent reporter protein (Figure 1A) that can be quantified by flow cytometry ([36]) (Figure S1 in Supplementary Material). Using this system, the generation of peptides bypasses the proteasome. After translocation into the ER, peptides compete for loading onto MHC-I molecules and are transported to the cell surface where they can be quantified by flow cytometry (Figure 1A). Both fusion proteins were naturally expressed at a broad range of concentrations after transient transfection, allowing in a single experiment to compare peptide surface presentation in cells expressing low to high levels of both fusion proteins (Figure 1B). To analyze competition between both peptides, cells were partitioned into different gates according to their expression level of mCherry, reporter for the level of expression of […], and Venus, reporter for the level of […] (Figure 1B). Competition was then assessed by plotting surface expression of […]-H2Db as a function of increasing cytoplasmic expression of the […] target peptide for increasing levels of competing peptide (Venus levels 1–7 in Figure 1B). […]

H-2Dd = H-2Dd (Mus musculus, UniProt P01900); settings: H-2Dd binding CT26 epitope; cited from earlier work
[3] = NIT-1 cells after IFNγ treatment
[4] = mCherry-SSLENFRAYV at around 10^4 MFI units

Row | Sequence | E10 score (E10 Fab binding to peptide–H2Db complexes) (E10 Fab) | t1/2 (peptide half-life of pMHC complex) (H-2Db [1]) | Off-rates (H-2Db [1]) | further results
1 | ASNENMETI | 13.1 MFI/1000 | 212 min | 5.4e-05 s⁻¹ | –
2 | ASIENLETM | 1.8 MFI/1000 | 502 min | 2.3e-05 s⁻¹ | –
3 | VYLKTNVFK | – | – | – | presentation, copies per cell (NIT-1 insulinoma cells; [3]): 25 copies per cell; enhancement of presentation by IFNγ (NIT-1 insulinoma cells): 25 fold increase; presentation, copies per cell (NIT-1 insulinoma cells; untreated NIT-1 cells): 1 copies per cell
4 | ASNENMETL | 11.8 MFI/1000 | 191 min | 6.1e-05 s⁻¹ | –
5 | ASNENLETM | 4.1 MFI/1000 | 238 min | 4.9e-05 s⁻¹ | –
6 | AETPDIKLF [human peptide derived from the RS5 protein, eluted from B44:02 complexes] | – | – | – | copies eluted from B44:02 complexes (B44:02): around 45,000 copies
7 | ASIENMETM | 8.9 MFI/1000 | 456 min | 2.5e-05 s⁻¹ | –
8 | SYFPEITHI | – | – | – | presentation, copies per cell (NIT-1 insulinoma cells; [3]): ~ 15,000 copies per cell; enhancement of presentation by IFNγ (NIT-1 insulinoma cells): 7.5 fold increase; presentation, copies per cell (NIT-1 insulinoma cells; untreated NIT-1 cells): ~ 2,000 copies per cell
9 | ASNENMETA | 14.2 MFI/1000 | 52 min | 0.00022 s⁻¹ | surface expression of ASN variant–H2Db (H-2Db [2]): unable to reach or remain at the cell surface at detectable levels
10 | ASNENMETM | 11.5 MFI/1000 | 223 min | 5.2e-05 s⁻¹ | change of surface expression of peptide–H2Db complexes with IFNγ (H-2Db [2]): increased around fourfold; ASNENMETM expression required to inhibit SSLENFRAYV presentation by 50%, with IFNγ compared to non-IFNγ-treated cells (H-2Db [2]; [4]): around ten times more
11 | SSLENFRAYV | 3.8 MFI/1000 | 408 min | 2.8e-05 s⁻¹ | change of surface expression of peptide–H2Db complexes with IFNγ (H-2Db [2]): increased around fourfold; cytoplasmic expression at which surface expression could be detected (H-2Db [2]; mCherry calibration beads): ~10^6 copies per cell; cytoplasmic expression in transfected cells (H-2Db [2]; mCherry calibration beads, maximum): up to 10^8 copies per cell; cell surface abundance in the absence of competitor (H-2Db [2]; [4]): around 4 × 10^4 complexes; copies expressed at the cell surface in the absence of competition (H-2Db [2]; mCherry-SSLENFRAYV at around 10^4 MFI units, printed in brackets after non-IFNγ-treated cells): 25 × 10^4 copies; number of pMHC complexes presented on the cell surface (H-2Db [2]; absence of ASNENMETM competition): up to 80,000 pMHC complexes; number of pMHC complexes presented on the cell surface (H-2Db [2]; highest level of ASNENMETM competitor): ≤ 10,000 pMHC complexes
12 | GGPESFYCASW | – | – | – | half-life (H-2Dd): 20 min
13 | ASNEAMETM | 8.2 MFI/1000 | 43 min | 0.00027 s⁻¹ | surface expression of ASN variant–H2Db (H-2Db [2]): unable to reach or remain at the cell surface at detectable levels
14 | ASNENMETV | 16.8 MFI/1000 | 132 min | 8.8e-05 s⁻¹ | surface expression of ASN variant–H2Db (H-2Db [2]): unable to reach or remain at the cell surface at detectable levels
